The values that follow come from US10450327B2, “Epidithiodioxopiperazine compound or its derivatives, and the use thereof” (priority 2011, dated 2019).

In one assay the test system is HAECs. It counts as cell-based, human. The following applies: up to 50 nM (100 nM for A4, A7, A9). As for the experimental part: For cell proliferation assay, HAECs were divided at a concentration of 4000 cells/well in a final volume of 100 μl onto a 96-well plate including a siRNA-transfection reagent mixture. After siRNA-transfected for 24 hours, the cells were serum-starved for 18 hours, and then placed in an EBM-2 basal medium supplemented with VEGF-A165 (25 ng/ml, Cat no. 293-VE, R&D systems) for additional 24 hours. The extent of cell proliferation was measured using a WST-1 cell proliferation assay kit (Roche Diagnostics, USA), and the number of cells was expressed as absorbance at 450 nm, which was averaged from 3 wells after subtracting the turbidity at 600 nm.
The cell migration assay was performed in a 24-well Transwell culture chamber (Costar; 8-μm pore size). The bottom of the filter was coated with gelatin B (1 mg/ml) and air-dried for 1 hour. HAECs (6×10^3) were added to upper chambers including siRNA-transfection complexes. After 24 hours, the siRNA-transfected HAECs were serum-starved overnight. A solution of VEGF-A (25 ng/ml) was prepared in a basal medium including 0.5% bovine serum albumin (BSA), and added to bottom chambers. The upper chamber wells were each filled with a basal medium including 0.5% BSA. The Transwell chamber was incubated for 8 hours under the condition of 37° C./5% carbon dioxide. After the incubation, the non-migrated cells at the top of the filter were removed, and the cells that migrated onto the bottom of filter were fixed and stained with 0.6% hematoxylin and 0.5% eosin. The stained cells were photographed and counted. The number of migrating cells was averaged from 3 wells.

The subject of assay [1] is balloon injured carotid arteries. Briefly: Vascular permeability test (Evans blue inflow). The settings on record: rat, in vivo. As for the experimental part: Mice were injected intravenously with 100 μl of 5% Evans blue for 30 minutes and then perfused with PBS for 5 minutes. The common carotid arteries were removed from both uninjured collateral and injured ipsilateral ones. The result was dissected, opened longitudinally, and examined on a phase contrast microscope with a magnification of 20×. For quantification, the Evans blue inflowed into the blood vessel was extracted by being placed in formamide at 55° C. overnight and centrifuged for 10 minutes at 12,000 rpm. The supernatants were collected and the absorbance was measured at 620 nm. The background value of the Evans blue dye was measured at 740 nm and substracted from the values in carotid arteries. For VEGFR2 inhibition, SU5416 (20 mg/kg) was injected intraperitoneally for 3 times (Days −1, 1, and 3) before and after the balloon injury. Control injection was made of 200 μl PBS including a vehicle (5% DMSO).
The permeability of the repaired endothelium was examined by Evans blue inflow.

For assay [2], the system named is PDGFRβ, PLCγ1, VEGFR2 and ERK. Briefly: PDGF and VEGF signaling in vascular cells from PrxII−/− mouse. The settings on record: cells separated from PrxII−/− mouse, PDGF-BB or VEGF-A 10 minutes. The assay is classed as cell-based. As for the experimental part:
Aortic vascular smooth muscle (A) and endothelial cells (B) were separated from a normal mouse and a PrxII−/− mouse, and cultured, and then treated with PDGF-BB and VEGF-A for 10 minutes each after either treating with GT or no treating. The activation of PDGFRβ, PLCγ1, VEGFR2 and ERK was analyzed using a phosphorylation-specific binding antibody for each protein.

The test system of assay [3] is SK-MEL-28 (SK28) melanoma cells. Briefly: Intracellular hydrogen peroxide, SK28 melanoma cells. The assay is classed as cell-based, human. The following applies: PrxII-deficient SK28 cells, nontoxic level of GT. As for the experimental part: The intracellular H2O2 level was measured using 5,6-chloromethyl-2′,7′-dichlorodihydrofluorescein diacetate (CM-DCFH-DA, Invitrogen), an oxidation-sensitive fluorescent dye. Human epidermal melanocyte, SK-MEL-5, SK-MEL-28, A375 and G361 cells (3×10^5) were grown in a 35 mm culure dish and infected with retroviruses for 24 hours. After that, the cells were serum-starved for 18 hours, and stimulated with 20% FBS for 10 minutes in a phenol red-free medium. After stimulated as described above, the cells were quickly rinsed with a Krebs-Ringer solution, and incubated with 5 μM CM-DCFH-DA for 5 minutes. 2′,7′-dichlorodihydrofluorescein (DCF) fluorescence was collected for 10 seconds using an inverted Axiovert 200 fluorescence microscope (Zeiss). The relative DCF fluorescence was calculated by averaging the fluorescence intensities of 60 to 80 cells after subtracting the background fluorescence from each image using an ImageQuant™ software (GE Healthcare). The desorbed sphenoid cells were excluded from quantification.
This proves the peroxidase activity of GT. Again, while GT treatment in the SK28 cells reduced Src/ERK activation and β-catenin phosphorylation, it increased the expression of E-cadherin (FIG. 53B). Furthermore, GT reduced the proliferation and the migration responding to serum stimulation in both SK5 and SK28 cells (FIGS. 53C and D).

The test system of another assay is SK-MEL-5 (SK5) cells. Briefly: Melanoma proliferation and migration assay, SK5. The assay is classed as cell-based, human. The following applies: 100 nM, 1 hour pretreatment. As for the experimental part: The extent of cell proliferation was measured using a WST-1 cell proliferation assay kit (Roche Diagnostics, USA) according to the protocol of the manufacturer. The number of cells was expressed as an absorbance value at 450 nm averaged from 3 wells after subtracting the turbidity at 600 nm. The chemotactic transmigration assay was performed in a 24-well Transwell culture chamber (Costar; polycarbonate membrane insert with 8-μm pore size). The bottom of the insert was coated with gelatin B (1 mg/ml) and air-dried for 1 hour. Retroviruses or transfection complexes were treated to melanoma cells (6×10^3). After 24 hours, the infected or transfected melanoma cells were serum-starved for 18 hours. A 20% FBS solution was added to bottom chambers including a basal medium containing 0.5% BSA. The upper chamber wells were each filled with a basal medium including 0.5% BSA. The Transwell chamber was incubated for 12 hours in a 37° C./5% CO2 incubator. After the incubation, the non-migrating cells at the top of the filter were removed. The cells that migrated onto the bottom of filter were fixed and stained with 0.6% hematoxylin and 0.5% eosin. The stained cells were photographed and counted. The number of migrating cells was averaged from 3 wells.

Take `CN1C(=O)[C@]23CC4=CC=C[C@H](O)[C@H]4N2C(=O)[C@@]1(CO)SS3` [gliotoxin]: the “VEGF-induced proliferation and chemotactic transmigration of HAECs, impaired by PrxII knockdown” value in the assay with HAECs was “enhancement”. Besides, the “Evans blue inflow compared to DMSO-treated injured carotid arteries” value in assay [1] is recorded as “approximately two-third reduction”. The “effects on PDGF signaling in VSMC and VEGF signaling in VEC” value in assay [2] is recorded as “opposed regulatory effects”. Besides, the “level of intracellular hydrogen peroxide” value in assay [3] is given as “reduced”. Further, the “proliferation and migration responding to serum stimulation, SK5” value in the assay with SK-MEL-5 (SK5) cells is listed as “reduced”.
